What was measured:
[1] = tested on: drug-induced gingival overgrowth (DIGO); experiment: Mice study #1: pilot DIGO model (suture + cyclosporine), gingival overgrowth; format: in vivo, BALB/c mice
Source text: Animal Study. […] Therefore, we developed a novel in-vivo anterior ligature model to develop DIGO. We examined two strains of mice, BALB/c and C57BL/6 were used. Sterile ligature (5-0 Silk thread) were placed around the lower central incisors on both sides in mice for 14 days at anaesthetized conditions using ketamine and xylazine. Mice were daily checked for placement of suture. […] The vehicle used to dissolve the drug was 10% ethanol and 10% polyethyleneglycol castor oil (Sigma-Aldrich, St. Louis MO) in sterilized distilled water to a volume of 100%. All mice were scarified at day 14. Euthanasia was performed using carbon dioxide followed by cervical dislocation.
In the combined prevention and treatment group, both modes of folic acid treatments were provided including PO and local gel application. […]
A 3Shape TRIOS® intraoral digital scanner was used to scan all of the dissected tissue and create a 3D STL (STereoLithography) file from each scan. […] The cropped scans were saved and imported into open source software platform 3DSlicer 4.8, where they were volumetrically analyzed using the “Volumes” module. The quantified volume values were statistically analyzed in GraphPad Prism® 7 (GraphPad Software Inc., CA, USA).

[2] = tested on: TNF-α in Oral Keratinocytes; experiment: TNF-α ELISA in oral keratinocytes; format: cell-based, human; settings: for amount of secreted TNF-α by ELISA: LPS (10 μg/ml), FA (10 μg/ml), 24 hours, p<0.05
Method: Cell Culture. Normal human oral keratinocytes (NOKSI) and fibroblast (HOF) cells were maintained in Dulbecco […] Eagle's medium (Sigma-Aldrich, St. Louis, MO, USA) supplemented with 10% fetal bovine serum (Atlas Bio-logicals, Fort Collins, CO, USA) and 100 units/mL penicillin and 100 μg/mL streptomycin (LifeTechnologies, Carlsbad, CA, USA). Cells were grown in incubator at 37° C. in a humidified chamber with 5% CO2.
Drugs treatment in cell culture. The cells were treated alone or with different combination of lipopolysaccharide, cyclosporine, phenytoin, and folic acid. All of them were purchased from Sigma-Aldrich (St. Louis, MO, USA). Each of them were used from 0 μg/ml to 40 μg/ml and the optimum concentration were found 10 μg/ml.
Enzyme linked immunosorbent assay (ELISA). ELISA was conducted with a mouse TNF-α ELISA Kit (PeproTech, USA) and TGF-β Emax ImmunoAssay System (Promega USA) to detect the TNF-α and TGF-β respectively. After normalization of the total cells or tissue protein lysates, 20 μg protein of each sample was used for the detection of TNF-α or TGF-β. ELISA was performed according to the manufacturers' instructions. For TNF-α, 100 ng/100 μl of capture antibody was added to each well of 96 well assay plate and incubated for overnight at room temperature. […] Optical absorbing values were read at 405 and 450 nm and corrected by 650 nm. […] TMB One Solution was added for 15 minutes and the reaction were stopped using 100 μl of 1N hydrochloric acid and the absorbance at 450 nm were recorded on a plate reader. Data were analyzed using excel software. […]
Folic acid reduces TNF-α oral keratinocytes. […] After adhesion, the cells were treated with different concentration of folic acid (2.5 μg/ml-40 μg/ml) and amount of TNF-α was measured by ELISA (p<0.05).
Folic acid reduces TNF-α in Oral Keratinocytes on LPS stimulation. […] The amount of secreted TNF-α was determined by ELISA (p<0.05).
Oral Keratinocytes were seeded and treated with LPS (10 μg/ml), Phe (10 μg/ml), and FA (10 μg/ml) for 24 hours. The amount of secreted TNF-α was determined by ELISA. […]

TLR2 = experiment: FACS of surface TLR2 on oral keratinocytes; format: cell-based, human; settings: LPS (10 μg/ml), Phe (10 μg/ml), different concentration of folic acid, 24 hours
Method: Flow cytometry. NOKSI cells were seeded in 100 mm plates with a density of 1×10^6 cells per plate. Cells were treated with drugs, LPS, and folic acid alone or in combination. After NOKSI were detached using Corning Cell Lifter (Corning) and 10 mM EDTA in PBS, the cells were washed with FACS buffer (PBS containing 1% BSA [Sigma] and 2 mM EDTA). Cells were stained by immunofluorescence for CD282 (TLR2) and CD284 (TLR4). Fluorescent labeled antibodies at a dilution of 1:1000 in staining buffer with 2% FBS in PBS were added and incubated for 30 min in dark on ice. Cells were centrifuged and washed thrice in staining buffer and passed through a 70 μm cell strainer before data acquisition. Data analysis was performed using FlowJo (TreeStar, Ashland, OR, USA). All incubations were performed on ice.
Oral Keratinocytes Cells were treated with only LPS (10 μg/ml) for 24 hours. […] Cells were treated with LPS (10 μg/ml) and Phe (10 μg/ml) for 24 hours. […] Cells were treated with LPS (10 μg/ml), Phe (10 μg/ml), and FA ([…]) for 24 hours. […] FIG. 16.

Nc1nc2ncc(CNc3ccc(C(=O)N[C@@H](CCC(=O)O)C(=O)O)cc3)nc2c(=O)[nH]1 [folic acid]
gingival overgrowth, 3D volumetric analysis ([1]; prevention sample vs disease sample, overlaid scans): reduced gingival overgrowth
gingival swelling and inflammation, clinical images ([1]; prevention: folic acid p.o. (10 μg/ml drinking water) & local gel, apparent at day 8, vs disease group): less swelling and inflammation
amount of secreted TNF-α by ELISA ([2]; CSA (10 μg/ml)): reduces TNF-α
amount of secreted TNF-α by ELISA ([2]; Phe (10 μg/ml)): inhibits Phenytoin-induced TNF-α
amount of TNF-α by ELISA ([2]; folic acid […]-40 μg/ml alone, p<0.05 vs non-treated): reduces TNF-α
TLR2 receptor on the cell surface (TLR2): do not alter

Reference: patent publication US20260000496A1, “MATERIALS AND METHODS FOR DRUG-INDUCED GINGIVAL OVERGROWTH” (Optimed Technology, Inc., priority 2019, published 2026)
